The text below walks through data of patent publication US6953783B1, “Modulation of gene expression by combination therapy” (MethylGene, Inc., priority 1998, dated 2005).

Common to all, as to format: cell-based, human
Experiment [1] relates to DNA MeTase protein. The experiment in a line: DNA MeTase protein levels by Western blotting in A549 cells. Particulars: 20, 40 or 80 nM with lipofectin, 4 h on day 0 and day 1, harvest day 2. From the text: MG88 was next tested for an ability to inhibit DNA MeTase mRNA in two human neoplastic cells, A549 (human non-small cell lung carcinoma cells) and T24 (human bladder cancer cells). […] MG208 was modified as follows: A equals 2′-deoxyriboadenosine; C equals 2′-deoxyribocytidine; G equals 2′-deoxyriboguanosine; T equals 2′-deoxyribothymidine; A equals riboadenosine; U equals uridine; C equals ribocytidine; and G equals riboguanosine. The underlined bases were 2′-methoxyribose substituted nucleotides. Non-underlined bases indicate deoxyribose nucleosides. The backbone of MG208 consisted of a phosphorothioate linkage between adjoining nucleotides.
The MG88 and MG208 oligonucleotides were diluted to the desired concentration from a 0.1 mM stock solution in the transfection media. Cells were exposed to oligonucleotide plus lipofectin (or lipofectin only) for four hours on day 0 and four hours on day 1 (after each four hour treatment, cells were returned to complete media). On day 2 (i.e., 48 hours after the first treatment on day 0), cells were harvested, whole cell lysates were prepared, and DNA MeTase protein levels were analyzed by Western blotting analysis with a DNA MeTase-specific rabbit polyclonal antibody (generated according to standard techniques of a glutathione S -transferase fusion protein containing the first 10 kDa amino terminus from DNA methyltransferase protein). […]
(In western blotting, separated proteins are transferred to a membrane and probed.)

In experiment [2] the test system is p21^WAF1. In words: p21^WAF1 protein levels by Western blotting in T24 cells. The protocol: Another member of the cyclin-dependent kinase inhibitor (CDKI) family, p21^WAF1, inhibits a wide range of cyclin/CDK complexes involved in G1 and S phase progression (Tam et al. (1994) Cancer Res. 54: 5816-5820; Baghdassarian and French (1996) Hematol. Cell Ther. 88: 313-323; Gotz et al. (1996) Oncogene 13: 391-398). […] To do this, DNA MeTase, p21^WAF1, and α-actin protein levels were measured by Western blotting analysis in T24 cells that had been treated for either 24 hours (i.e., one 4 hour transfection time) or 48 hours (i.e., two […] transfections 24 hours apart) with either 40 nM or 75 nM of either MG88 or MG208.
T24 cells were also treated for 24 hours (i.e., four hour transfection) with lipofectin only, or lipofectin plus 20, 40, or 80 nM of MG88 or MG208. After treatment, cell lysates were prepared and analyzed by Western blotting analysis with α-actin-specific antibody or p21-specific antibody.

Experiment [3] relates to pRb. In words: Western blotting for phosphorylated pRb in T24 cells. The note with it: T24 cells reactivated to express p16^ink4A after transfection.
The test system of experiment [4] is p16^ink4A protein. The experiment in a line: p16^ink4A protein by immunoprecipitation and Western blotting in T24 cells. From the text:
The cyclin-dependent kinase inhibitor (CDKI) p16^ink4A regulates the transition from G1 to S-phases of the cell cycle (Serrano et al. (1993) Nature 366: 704-707). Inactivation of p16^ink4A is one of the most frequently observed abnormalities in human cancer (Serrano et al., supra). Transcriptional inactivation and associated hypermethylation of the p16^ink4A promote region have also been observed in virtually all types of cancer (Gonzales-Zulueta et al. (1995) Cancer Res. 55: 4531-4535; Merlo et al. (1995) Nat. Med. 7: 686-692; Costello et al. (1996) Cancer Res. 56: 2405-2410; Lo et al., Cancer Res. 56: 2721-2725). To investigate the effect of specifically reducing cellular DNA MeTase levels on the expression and methylation status of a silenced p16^ink4A gene, T24 human bladder cancer cells that contain a hypermethylated and silenced p16^ink4A gene were transfected with 40 nM or 75 nM MG88 or control oligonucleotide MG208 with 6.25 μg/ml lipofectin for four hours each day for up to 10 consecutive days. On days 3, 5, 8, and 10, p16^ink4A protein levels were then analyzed by immunoprecipitation followed by Western blotting analysis with a p16^ink4A protein-specific antibody (PharMingen). HeLa cells were used as a positive (+) control for p16^ink4A protein expression.
Next, to determine whether de novo methylation and silencing of the re-expressed p16^ink4A gene occurred when DNA MeTase returned to normal levels, T24 cells were transfected for 10 consecutive days with either 40 or 75 nM or MG88 or MG208. […] Cell lysates of the T24 cells transfected for ten days were analyzed by Western blotting analysis for expression of DNA MeTase protein,p16^ink4A protein, and actin protein (as a control for equal loading) 3, 5, and 7 days after MG88 transfection.

For 5′-AAGCAT GAG CAC CGT TCUCC-3′ [MG88], the “reduction in DNA MeTase protein levels” value in experiment [1] is recorded as “dose-dependent reduction in DNA MeTase protein levels”. In addition, the “p21^WAF1 protein level” value in experiment [2] (40 nM or 75 nM, 24 or 48 hours) is recorded as “increased directly with the reduction in DNA MeTase”. Moreover, in experiment [2] (20, 40 or 80 nM, 24 hours), the “p21^WAF1 protein induction, dose response” value is on record as “induced p21^WAF1 in a dose dependent fashion”. Besides, in experiment [3], the “phosphorylated forms of pRb” value was “decrease in the amount of phosphorylated forms of pRb”. Further, the “induction of expression of p16^ink4A protein” value in experiment [4] (40 nM or 75 nM, 4 h each day up to 10 days) is “detected after 5 days of treatment”. Besides, in experiment [4] (after 10 day treatment with 40 nM), the “p16^ink4A protein level post-treatment” value was “barely detectable at day 7 post-treatment”.
